Test results: PubChem BioAssay (NCI)
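Step 1: Grow cells in 96-well plates. Step 2: Expose to compound for 48 hours at 5 concentrations. Step 3: Interpolate endpoints linearly; if unreached, use highest concentration. GI50 is the concentration that inhibits growth by half. TGI marks complete inhibition of growth.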

How the values were obtained:
Test in all cases: NCI-60 cell line screen, 48 h
[1] = system: NCI-H23 lung
[2] = system: SR leukemia
[3] = system: SW-620 colon
[4] = system: SF-268 CNS
[5] = system: OVCAR-8 ovarian
[6] = system: MOLT-4 leukemia
[7] = system: LOX IMVI melanoma
[8] = system: NCI-H522 lung
[9] = system: HOP-62 NSCLC
[10] = system: HCT-116 colon

SMILES: CN1CC(=O)N(C)c2nc[nH]c2C1=O
- TGI [1]: > 100 µM
- TGI [2]: > 100 µM
- TGI [3]: > 100 µM
- TGI [4]: > 100 µM
- TGI [5]: > 100 µM
- TGI [6]: > 100 µM
- TGI [7]: > 100 µM

SMILES: NCCSCCc1ccccc1
- TGI [1]: > 100 µM
- TGI [8]: > 100 µM
- TGI [2]: > 100 µM
- TGI [3]: > 100 µM
- TGI [9]: > 100 µM
- TGI [4]: > 100 µM
- TGI [10]: > 100 µM
- TGI [5]: > 100 µM
- TGI [7]: > 100 µM

SMILES: O=C(O)CCSC(=O)Nc1ccc(N=Nc2ccccc2)cc1
- TGI [1]: > 100 µM
- TGI [2]: > 100 µM
- TGI [3]: > 100 µM
- TGI [9]: > 100 µM
- TGI [4]: > 100 µM
- TGI [10]: > 100 µM
- TGI [5]: > 100 µM
- TGI [6]: > 100 µM
- TGI [7]: > 100 µM

SMILES: O=C1C=CC(O)C2C1CC13SSC4(CC5C(=O)C=CC(O)C5N4C1=O)C(=O)N23 (stereo unspecified)
- TGI [1]: 0.393 µM
- TGI [8]: 0.544 µM
- TGI [2]: 0.0727 µM
- TGI [3]: 0.136 µM
- TGI [9]: 1.15 µM
- TGI [4]: 5.85 µM
- TGI [5]: 0.271 µM
- TGI [6]: > 100 µM
- TGI [7]: 0.193 µM

SMILES: Nc1n[nH]c(CCc2nc(N)n[nH]2)n1
- TGI [1]: > 100 µM
- TGI [8]: > 100 µM
- TGI [3]: > 100 µM
- TGI [9]: > 100 µM
- TGI [4]: > 100 µM
- TGI [10]: > 100 µM
- TGI [5]: > 100 µM
- TGI [6]: > 100 µM
- TGI [7]: > 100 µM

SMILES: ClCc1ccc(Cn2cnc3c(Cl)nc(Cl)nc32)cc1
- GI50 [1]: 7.62 µM
- TGI [1]: 23.2 µM
- GI50 [8]: 22.4 µM
- TGI [8]: 46.8 µM
- GI50 [3]: 3.79 µM
- TGI [3]: 17.3 µM
- GI50 [9]: 2.19 µM
- TGI [9]: 5.09 µM
- GI50 [4]: 2.51 µM
- TGI [4]: 5.42 µM
- GI50 [10]: 1.72 µM
- TGI [10]: 3.6 µM
- GI50 [5]: 20 µM
- TGI [5]: 38.3 µM
- GI50 [6]: 10.4 µM
- TGI [6]: 27.4 µM
- GI50 [7]: 2.06 µM
- TGI [7]: 4.13 µM

SMILES: C=CCCCc1ccc(C(O)CCCCCCCCCCCC)o1 (stereo unspecified)
- GI50 [1]: 22.3 µM
- TGI [1]: 52.5 µM
- GI50 [8]: 15.3 µM
- TGI [8]: 29.7 µM
- GI50 [3]: 22.8 µM
- TGI [3]: 62 µM
- GI50 [9]: 16 µM
- TGI [9]: 30.2 µM
- GI50 [4]: 16.1 µM
- TGI [4]: 35 µM
- GI50 [10]: 15.5 µM
- TGI [10]: 28.9 µM
- GI50 [5]: 20.6 µM
- TGI [5]: 44.9 µM
- GI50 [6]: 19.6 µM
- TGI [6]: 58.8 µM
- GI50 [7]: 16.9 µM
- TGI [7]: 31.1 µM

SMILES: COC(=O)C1=C(c2ccc3c(c2)OCO3)OC(c2cc(OC)c(OC)c(OC)c2)C1 (stereo unspecified)
- TGI [1]: > 100 µM
- TGI [2]: > 100 µM
- TGI [3]: > 100 µM
- TGI [9]: > 100 µM
- TGI [4]: > 100 µM
- TGI [10]: 85.4 µM
- TGI [5]: 92.4 µM
- TGI [6]: > 100 µM
- TGI [7]: > 100 µM

SMILES: COc1cc(Cl)cc(-c2nn(-c3cccc(NC(=O)Nc4ccc(Cl)c(C(F)(F)F)c4)c3)cc2-c2ccncc2)c1
- GI50 [1]: 1.36 µM
- TGI [1]: 6.23 µM
- GI50 [8]: 0.418 µM
- TGI [8]: 2.5 µM
- GI50 [2]: 1.08 µM
- TGI [2]: 4.38 µM
- GI50 [3]: 1.61 µM
- TGI [3]: 10.5 µM
- GI50 [9]: 2.12 µM
- TGI [9]: 6.32 µM
- GI50 [4]: 2.66 µM
- TGI [4]: 12.1 µM
- GI50 [10]: 0.631 µM
- TGI [10]: 2.36 µM
- GI50 [5]: 0.739 µM
- TGI [5]: 5.93 µM
- GI50 [6]: 1.23 µM
- TGI [6]: 4.65 µM

SMILES: CCN(CC)CCOc1ccc(C(=O)/C=C\c2ccc(Cl)cc2Cl)cc1
- GI50 [1]: 7.15 µM
- TGI [1]: 22.1 µM
- GI50 [8]: 15.2 µM
- TGI [8]: 35.6 µM
- GI50 [2]: 1.69 µM
- TGI [2]: 5.34 µM
- GI50 [3]: 1.87 µM
- TGI [3]: 4.36 µM
- GI50 [9]: 11 µM
- TGI [9]: 24.9 µM
- GI50 [4]: 8.41 µM
- TGI [4]: 23.7 µM
- GI50 [10]: 1.56 µM
- TGI [10]: 3.31 µM
- GI50 [5]: 13.4 µM
- TGI [5]: 28.1 µM
- GI50 [7]: 1.78 µM
- TGI [7]: 3.6 µM

SMILES: O=C(O)c1ccccc1NC(=O)C1CCCCC1
- TGI [3]: > 100 µM
- TGI [9]: > 100 µM
- TGI [4]: > 100 µM
- TGI [10]: > 100 µM
- TGI [5]: > 100 µM
- TGI [6]: > 100 µM
- TGI [7]: > 100 µM

SMILES: O=C(CC1C(=O)Nc2ccccc2S1=O)Nc1ccc(Cl)cc1 (stereo unspecified)
- TGI [1]: > 100 µM
- TGI [8]: > 100 µM
- TGI [2]: > 100 µM
- TGI [3]: > 100 µM
- TGI [9]: > 100 µM
- TGI [4]: > 100 µM
- TGI [5]: > 100 µM
- TGI [6]: > 100 µM
- TGI [7]: > 100 µM

SMILES: CC1=C(C(=O)Nc2ccc([N+](=O)[O-])cc2)C(c2ccccc2F)C(C(=O)Nc2ccc([N+](=O)[O-])cc2)=C(C)N1
- TGI [1]: 44.4 µM
- TGI [8]: 35 µM
- TGI [3]: > 100 µM
- TGI [9]: 47.8 µM
- TGI [4]: > 100 µM
- TGI [10]: 31.5 µM
- TGI [5]: > 100 µM
- TGI [6]: 27.4 µM
- TGI [7]: 31.3 µM

SMILES: CN(C)C(=S)/N=c1\ss/c(=N\S(=O)(=O)c2ccccc2)n1N(C)C
- TGI [8]: 37.8 µM
- TGI [2]: > 100 µM
- TGI [3]: > 100 µM
- TGI [9]: > 100 µM
- TGI [4]: > 100 µM
- TGI [10]: > 100 µM
- TGI [5]: > 100 µM
- TGI [6]: > 100 µM

SMILES: CCCCCCC(/C=N/O)C(C)(O)CCC (stereo unspecified)
- TGI [1]: > 100 µM
- TGI [8]: > 100 µM
- TGI [3]: > 100 µM
- TGI [9]: > 100 µM
- TGI [4]: > 100 µM
- TGI [10]: > 100 µM
- TGI [5]: > 100 µM
- TGI [6]: > 100 µM
- TGI [7]: > 100 µM
